Values quoted from earlier work as cited in patent US6569457B2, “Enteric coated pharmaceutical tablet and method of manufacturing” (priority 1998, dated 2003).

degradation at acidic pH: degrades rapidly
Structure (SMILES): O=c1[nH]cnc2c1ncn2C1CCC(CO)O1 (stereo not shown) [ddl, 2′,3′-dideoxyinosine]
